Data as given in patent EP0171702A1, “Benzoxazinone derivatives, preparation and use” (BEECHAM GROUP PLC, priority 1984, dated 1986).
Like-named read-outs stand apart in the source and are kept apart here.

Assays:
Male Sprague-Dawley rats = assay: Effect on energy expenditure of rats; type: in vivo; conditions: percentage of rate of rats dosed with water; for response vs control in vivo at 3.6 mg/kg / response vs control in vivo at 8.9 mg/kg / response vs control in vivo at 7.1 mg/kg / response vs control in vivo at 8.2 mg/kg / response vs control in vivo at 4.1 mg/kg / response vs control in vivo at 3.7 mg/kg / response vs control in vivo at 7.2 mg/kg / response vs control in vivo at 32.6 mg/kg / response vs control in vivo at 4.3 mg/kg / response vs control in vivo at 21.6 mg/kg / response vs control in vivo at 4 mg/kg: Rattus norvegicus, po; for response vs control in vivo at 8.9 mg/kg: 8.9 mg/kg p.o.; for response vs control in vivo at 7.1 mg/kg: 7.1 mg/kg p.o.; for response vs control in vivo at 8.2 mg/kg: 8.2 mg/kg p.o.; for response vs control in vivo at 4.1 mg/kg: 4.1 mg/kg p.o.; for response vs control in vivo at 3.7 mg/kg: 3.7 mg/kg p.o.; for response vs control in vivo at 7.2 mg/kg: 7.2 mg/kg p.o.; for response vs control in vivo at 32.6 mg/kg: 32.6 mg/kg p.o.; for response vs control in vivo at 4.3 mg/kg: 4.3 mg/kg p.o.; for response vs control in vivo at 21.6 mg/kg: 21.6 mg/kg p.o.; for response vs control in vivo at 4 mg/kg: 4.0 mg/kg p.o.
Procedure: Water was provided ad lib at all times. The compounds were administered orally in water to 3 or 4 rats. A further 4 rats were dosed orally with water. The rats were placed in boxes through which air was drawn and the oxygen content of the air leaving the boxes was measured. The energy expenditure of the rats was calculated for 3 hours and for 21 hours after dosing from the volume of air leaving the boxes and its oxygen content, following the principles described by J.B. de V. Weir, J. Physiol. (London) 109, 1-9 (1949). The results are expressed as a percentage of the rate of energy expenditure of the rats dosed with water.

[1] = test system: spontaneously beating right atrium; assay: Isolated rat atria: rate of the spontaneously beating right atrium; conditions: for EC50: molar concentration producing 50% of the compound's own maximum response; for Emax: read-out: Rate Intrinsic Activity
Procedure: (§1) Sprague-Dawley male rats (300-400g) are killed and the right and left atria dissected out independently and mounted on a combined tissue holder/electrode. […] The rate of the spontaneously beating right atrium (via an isometric transducer and a ratemeter) and the tension of the electrically paced left atrium (via an isometric transducer) are recorded on a M19 chart recorder.
(§2) After an initial stabilization period, the tissues are exposed to a maximal concentration of isoprenaline (10-^7M). The tissues are then washed several times until rate and tension return to baseline level. A dose-response curve to the test compound is then carried out.
(§3) Responses to each concentration of test compound are expressed as a percentage of the maximal responses to isoprenaline. Results are given in the form of (a) intrinsic activity (maximal effect of test compound with respect to isoprenaline maximum, i.e. isoprenaline intrinsic activity = 1) and (b) EC50 (the molar concentration at which the test compound produces 50% of its own maximum response).

[2] = test system: electrically paced left atrium; assay: Isolated rat atria: tension of the electrically paced left atrium; conditions: for EC50: molar concentration producing 50% of the compound's own maximum response; for Emax: read-out: Tension Intrinsic Activity
Procedure: as §1, §2, §3

[3] = Krebs solution at 32°C, maximal effect relative to isoprenaline maximum (isoprenaline = 1)
[4] = 3 h, 0-3h after dosing, read-out: Mean Energy Expenditure 0-3h
[5] = 21 h, 0-21h after dosing, read-out: Mean Energy Expenditure 0-21h
[6] = Rattus norvegicus, organ bath at 29°C, maximal effect relative to isoprenaline maximum (isoprenaline = 1)
[7] = Rattus norvegicus, organ bath at 29°C
[8] = Rattus norvegicus, Krebs solution at 32°C, maximal effect relative to isoprenaline maximum (isoprenaline = 1)
[9] = Rattus norvegicus, Krebs solution at 32°C

With `CC(Cc1ccc2c(c1)NC(=O)CO2)NCC(O)c1cccc(Cl)c1` (centres unmarked) [8 (14:86), 6-[2-[2-(3-Chlorophenyl)-2-hydroxyethylamino]-2-methylethyl]-2H-1,4-benzoxazin-3-(4H)-one] the response vs control in vivo at 3.6 mg/kg (Male Sprague-Dawley rats; 3 h, 3.6 mg/kg p.o., 0-3h after dosing, read-out: Mean Energy Expenditure 0-3h) was 125%, the response vs control in vivo at 3.6 mg/kg (Male Sprague-Dawley rats; 21 h, 3.6 mg/kg p.o., 0-21h after dosing, read-out: Mean Energy Expenditure 0-21h) was 105% and the “Rate Intrinsic Activity” value [1, 3] was 0.16. The EC50 ([1]; Krebs solution at 32°C) was 750 nM, the “Tension Intrinsic Activity” value [2, 3] was 0.20 and the EC50 ([2]; Krebs solution at 32°C) was 3800 nM.

For `CC(COc1ccc2c(c1)N(C)C(=O)CO2)NCC(O)c1cccc(Cl)c1` (centres unmarked) [Example 12, 6-[2-[2-(3-Chlorophenyl)-2-hydroxyethylamino]-2-methylethoxy]-4-methyl-2H-1,4-benzoxazin-3-(4H)-one hemifumarate], the response vs control in vivo at 8.9 mg/kg (Male Sprague-Dawley rats; [4]) was 109%, the response vs control in vivo at 8.9 mg/kg (Male Sprague-Dawley rats; [5]) was 97% and the Emax [1, 6] was 98%. It also gave an EC50 [1, 7] of 29 nM, an Emax [2, 6] of 90% and an EC50 [2, 7] of 790 nM.

For `CC(Cc1ccc2c(c1)NC(=O)CO2)NCC(O)c1cccc(Cl)c1` (centres unmarked) [8 (82:18), 6-[2-[2-(3-chlorophenyl)-2-hydroxyethylamino]-2-methylethyl]-2H-1,4-benzoxazin-3-(4H)-one], the “Mean Energy Expenditure 0-3h” value (Male Sprague-Dawley rats; 3.6 mg/kg p.o., 0-3h after dosing) was 122%, the “Mean Energy Expenditure 0-21h” value (Male Sprague-Dawley rats; 3.6 mg/kg p.o., 0-21h after dosing) was 106% and the EC50 ([1]; Krebs solution at 32°C) was 240 nM. For the same compound, the Emax [1, 8] was 29%, the Emax [2, 8] was 12% and the EC50 [2, 9] was 3200 nM.

With `CC(Cc1ccc2c(c1)NC(=O)CO2)NCC(O)COc1ccccc1` (centres unmarked) [Example 11, 6-[2-[3-Phenoxy-2-hydroxypropylamino]-2-methylethyl]-2H-1,4-benzoxazin-3-(4H)-one] the response vs control in vivo at 7.1 mg/kg (Male Sprague-Dawley rats; [4]) was 119%, the response vs control in vivo at 7.1 mg/kg (Male Sprague-Dawley rats; [5]) was 108% and the Emax [1, 8] was 32%. It also gave an EC50 [1, 9] of 53 nM, an Emax [2, 8] of 11% and an EC50 [2, 9] of 100 nM.

With `CC(COc1ccc2c(c1)NC(=O)CO2)NCC(O)COc1cccc2[nH]ccc12` (centres unmarked) [Example 19, 6-[2-[2-hydroxy-3-(indol-4-yloxy)propylamino]-2-methyl-ethoxy]-2H-1,4-benzoxazin-3-(4H)-one] the response vs control in vivo at 8.2 mg/kg (Male Sprague-Dawley rats; [4]) was 116%, the response vs control in vivo at 8.2 mg/kg (Male Sprague-Dawley rats; [5]) was 114% and the Emax [1, 6] was 54%. For the same compound, the EC50 [1, 7] was 130 nM.

For `CCc1cccc2cc(C(O)CNC(C)COc3ccc4c(c3)NC(=O)CO4)oc12` (centres unmarked) [Example 20, 6-[2-[2-(7-Ethylbenzofuran-2-yl)-2-hydroxyethylamino]-2-methylethoxy]-2H-1,4-benzoxazin-3-(4H)-one], the response vs control in vivo at 4.1 mg/kg (Male Sprague-Dawley rats; [4]) was 110%, the response vs control in vivo at 4.1 mg/kg (Male Sprague-Dawley rats; [5]) was 107% and the Emax [1, 6] was 95%. It also gave an EC50 [1, 7] of 63 nM, an Emax [2, 6] of 113% and an EC50 [2, 7] of 130 nM.

With `CC(COc1ccc2c(c1)NC(=O)CO2)NCC(O)COc1ccccc1` (centres unmarked) [Example 18, 6-[2-(2-Hydroxy-3-phenoxypropylamino)-2-methylethoxy]-2H-1,4-benzoxazin-3-(4H)-one] the response vs control in vivo at 3.7 mg/kg (Male Sprague-Dawley rats; [4]) was 155%, the response vs control in vivo at 3.7 mg/kg (Male Sprague-Dawley rats; [5]) was 109% and the Emax [1, 8] was 52%. It also gave an EC50 [1, 9] of 11 nM.

`CC(COc1ccc2c(c1)NC(=O)CO2)NCC(O)COc1ccccc1O` (centres unmarked) [Example 5, 6-[2-[3-(2-hydroxyphenoxy)-2-hydroxypropylamino]-2-methylethoxy]-2H-1,4-benzoxazin-3-(4H)-one hemifumarate] showed a response vs control in vivo at 8.9 mg/kg (Male Sprague-Dawley rats; [4]) of 111%, a response vs control in vivo at 8.9 mg/kg (Male Sprague-Dawley rats; [5]) of 100% and an Emax [1, 8] of 18%. The EC50 [1, 9] was 35 nM.

`CC(Cc1ccc2c(c1)NC(=O)CO2)NCC(O)COc1ccc(O)cc1` (centres unmarked) [Example 14, 6-[2-[3-(4-Hydroxyphenoxy)-2-hydroxypropylamino]-2-methylethyl]-2H-1,4-benzoxazin-3-(4H)-one] was tested, and the response vs control in vivo at 3.7 mg/kg (Male Sprague-Dawley rats; [4]) was 114%, the response vs control in vivo at 3.7 mg/kg (Male Sprague-Dawley rats; [5]) was 103% and the Emax [1, 8] was 87%. For the same compound, the EC50 [1, 9] was 400 nM, the Emax [2, 8] was 54% and the EC50 [2, 9] was 1400 nM.

`CC(COc1ccc2c(c1)NC(=O)CO2)NCC(O)c1ccc(O)cc1` (centres unmarked) [Example 15, 6-[2-[2-(4-Hydroxyphenyl)-2-hydroxyethylamino]-2-methylethoxy]-2H-1,4-benzoxazin-3-(4H)-one] showed a response vs control in vivo at 7.2 mg/kg (Male Sprague-Dawley rats; [4]) of 126%, a response vs control in vivo at 7.2 mg/kg (Male Sprague-Dawley rats; [5]) of 103% and an Emax [1, 8] of 98%. For the same compound, the EC50 [1, 9] was 44 nM, the Emax [2, 8] was 88% and the EC50 [2, 9] was 160 nM.

With `CC(Cc1ccc2c(c1)NC(=O)CO2)NCC(O)c1ccccc1` (centres unmarked) [Example 10, 6-[2-[2-Phenyl-2-hydroxyethylamino]-2-methylethyl]-2H-1,4-benzoxazin-3-(4H)-one] the response vs control in vivo at 32.6 mg/kg (Male Sprague-Dawley rats; [4]) was 122% and the response vs control in vivo at 32.6 mg/kg (Male Sprague-Dawley rats; [5]) was 101%.

`C=CCOc1ccccc1OCC(O)CNC(C)COc1ccc2c(c1)NC(=O)CO2` (centres unmarked) [Example 16, 6-[2-[3-(2-Allyloxyphenoxy)-2-hydroxypropylamino]-2-methyl-ethoxy]-2H-1,4-benzoxazin-3-(4H)-one] was tested, and the response vs control in vivo at 4.3 mg/kg (Male Sprague-Dawley rats; [4]) was 115% and the response vs control in vivo at 4.3 mg/kg (Male Sprague-Dawley rats; [5]) was 101%.

With `CC(COc1ccc2c(c1)NC(=O)CO2)NCC(O)COc1cc(O)cc(O)c1` (centres unmarked) [Example 21, 6-[2-[3-(3,5-Dihydroxyphenoxy)-2-hydroxypropylamino]-2-methylethoxy]-2H-1,4-benzoxazin-3-(4H)-one hemifumarate] the response vs control in vivo at 21.6 mg/kg (Male Sprague-Dawley rats; [4]) was 110%, the response vs control in vivo at 21.6 mg/kg (Male Sprague-Dawley rats; [5]) was 105% and the Emax [1, 6] was 85%. For the same compound, the EC50 [1, 7] was 16 nM.

Work on `COc1ccccc1OCC(O)CNC(C)COc1ccc2c(c1)NC(=O)CO2` (centres unmarked) [Example 17, 6-[2-[3-(2-Methoxyphenoxy)-2-hydroxypropylamino]-2-methyl-ethoxy]-2H-1,4-benzoxazin-3-(4H)-one] yielded a response vs control in vivo at 4 mg/kg (Male Sprague-Dawley rats; [4]) of 112%, a response vs control in vivo at 4 mg/kg (Male Sprague-Dawley rats; [5]) of 103% and an Emax [1, 6] of 91%. For the same compound, the EC50 [1, 7] was 8.6 nM.

Compound `CC(Cc1ccc2c(c1)NC(=O)CO2)NCC(O)COc1ccccc1O` (centres unmarked) [Example 9, 6-[2-[3-(2-hydroxyphenoxy)-2-hydroxypropylamino]-2-methylethyl]-2H-1,4-benzoxazin-3-(4H)-one] has an Emax [1, 8] of 15%, an EC50 [1, 9] of 30 nM and an Emax [2, 8] of 12%. The EC50 [2, 9] was 28 nM.

For `CC(Cc1ccc2c(c1)N(C)C(=O)CO2)NCC(O)c1cccc(Cl)c1` (centres unmarked) [Example 13, 6-[2-[2-(3-Chlorophenyl)-2-hydroxyethylamino]-2-methylethyl]-4-methyl-2H-1,4-benzoxazin-3-(4H)-one hemifumarate], the Emax [1, 6] was 64%, the EC50 [1, 7] was 250 nM and the Emax [2, 6] was 54%. For the same compound, the EC50 [2, 7] was 15000 nM.
